In US20120219596A1, “INJECTABLE FORMULATION FOR TREATMENT AND PROTECTION OF PATIENTS HAVING AN INFLAMMATORY REACTION OR AN ISCHEMIA-REPERFUSION EVENT” (ETH Zurich, priority 2009, published 2012):
Read-outs that look alike come from different tables or passages of the source.

Tests used:
[1] = tested on: MCP-1 levels of rat alveolar epithelial cells; assay: MCP-1 levels in supernatants of LPS-stimulated rat alveolar epithelial cells (ELISA); assay type: cell-based
Experimental: Table 2 MCP-1 levels of rat alveolar epithelial cells measured in supernatants in relation to an exposition to LPS without any substance (positive control=100%)
(§1) METHODS: Different molecules with CF3-group were tested against their corresponding non-fluorinated molecules. The group of molecules with CF3-group included hexafluoroisopropanol, 2,2,3,3,3-pentafluoro-1-propanol, 2,2,2-trifluorethanol, 3-amino-4,4,4-tri-fluorobutyroic acid, methyl-4,4,4-trifluoro-acetoacetate, methyl-trifluoro-acetamide, 5,5,5-trifluorleucine and Sevoflurane. In the group without CFx moieties 2-propanol, 1-propanol, ethanol, leucine, and diethyl ether were included. As well established model rat alveolar epithelial cells (AEC) and human blood microvascular cells (HMVEC) were exposed to phosphate-buffered saline (PBS, negative control) or LPS (20 μg/ml) for 6 hours (positive control). The influence of fluorinated compounds and non-fluorinated reference compounds on the inflammatory response of the cells was tested. Expression of rat-MCP-1 (BD Biosciences, San Diego, Calif.) and human CINC-1 GROa (R&D Systems Europe Ltd.) protein were analyzed by ELISA. Evaluation of possible cytotoxicity was done counting cells by means of fluorescence DNA quantification assays. At the same time release of lactate dehydrogenase into the supernatants was measured (LDH Assay, Promega, Madison, Wis., USA).

[2] = tested on: CINC-1/GROa protein levels of human blood micro vascular endothelial cells; assay: CINC-1/GROa protein levels in supernatants of LPS-stimulated HMVEC (ELISA); assay type: cell-based; conditions: for CINC-1/GROa protein level in relation to LPS without any substance, Median: HMVEC, LPS 20 μg/ml 6 hours, positive control=100%
Experimental: Table 1 CINC-1/GROa protein levels of human blood micro vascular endothelial cells measured in supernatants in relation to an exposition to LPS without any substance (positive control=100%)
as §1

[3] = cited from earlier work
[4] = tested on: human microvascular endothelial cells (HMVEC); assay: Viability and cytotoxicity in HMVEC (LDH release, fluorescence DNA quantification); assay type: cell-based; conditions: LDH release and cell count by fluorescence DNA quantification, in relation to control (100%), FIG. 1
Experimental: Viability is assessed by measuring the release of lactate de-hydrogenase and cytotoxicity is quantified by counting cells by means of fluorescence DNA quantification assays (see example 1). […] Concentration level differences are presented in relation to control (100%).
as §1

[5] = cited from earlier work; remark: listed apart in the source
[6] = tested on: inflammatory mediators and tissue damage markers (troponin or serum transaminase levels); conditions: patients undergoing lung, heart or liver surgery; cited from earlier work
[7] = tested on: polymorphonuclear neutrophils; assay: Chemotactic migration of polymorphonuclear neutrophils towards supernatants from LPS-stimulated endothelial cells; assay type: cell-based; conditions: 16 mmol/L, FIG. 2
Experimental: Furthermore, the effect of hexafluoro-2-propanol in a concentration of 16 mmol/L on the chemotactic migration of polymorphonuclear neutrophils towards supernatants from LPS-stimulated endothelial cells (right side, 270)° and towards supernatants from LPS-stimulated endothelial cells incubated with hexafluoro-2-propanol (left side, 90°) was assessed according to (De Conno et al., Anesthesiology 2009; 110:1316-1326)

[8] = rat AEC, LPS 20 μg/ml 6 hours, 16 mmol/l in culture medium, positive control=100%
[9] = rat AEC, LPS 20 μg/ml 6 hours, 32 mmol/l in culture medium, positive control=100%
[10] = rat AEC, LPS 20 μg/ml 6 hours, 64 mmol/l in culture medium, positive control=100%
[11] = footnote 1: Qiana et al., Journal of Chromatography A 2007
[12] = Epithelial cell, rat AEC, LPS 20 μg/ml 6 hours, 16 mmol/l in culture medium, positive control=100%, read-out: MCP-1 level in relation to LPS without any substance, Median
[13] = Epithelial cell, rat AEC, LPS 20 μg/ml 6 hours, 64 mmol/l in culture medium, positive control=100%, read-out: MCP-1 level in relation to LPS without any substance, Median
[14] = Epithelial cell, rat AEC, LPS 20 μg/ml 6 hours, 32 mmol/l in culture medium, positive control=100%, read-out: MCP-1 level in relation to LPS without any substance, Median
[15] = Rattus norvegicus, Epithelial cell, 6 h, read-out: MCP-1 level in relation to LPS without any substance, Median

For `CC(N)CC(=O)O` (racemic) [DL-3-Amino-n-butyric acid, reference compound], the “MCP-1 level in relation to LPS without any substance, Median” value ([1]; rat AEC, LPS 20 μg/ml 6 hours, 8 mmol/l in culture medium, positive control=100%) was 95%, the “MCP-1 level in relation to LPS without any substance, Median” value [1, 8] was 91% and the “MCP-1 level in relation to LPS without any substance, Median” value [1, 9] was 149%. The “MCP-1 level in relation to LPS without any substance, Median” value [1, 10] was 117%.
With `CCCO` [1-Propanol, reference compound] the “CINC-1/GROa protein level in relation to LPS without any substance, Median” value ([2]; 16 mmol/l in culture medium) was 82%, the “CINC-1/GROa protein level in relation to LPS without any substance, Median” value ([2]; 32 mmol/l in culture medium) was 81% and the “CINC-1/GROa protein level in relation to LPS without any substance, Median” value ([2]; 64 mmol/l in culture medium) was 64%. For the same molecule, the “MCP-1 level in relation to LPS without any substance, Median” value [1, 8] was 99% and the “MCP-1 level in relation to LPS without any substance, Median” value [1, 10] was 74%.
In the case of `OCC(F)(F)F` [2,2,2-Trifluorethanol, 2,2,2-Trifluoroethanol], the Solubility ([3]; in words) is given as “miscible”, the “CINC-1/GROa protein level in relation to LPS without any substance, Median” value ([2]; 16 mmol/l in culture medium) is given as 98% and the “CINC-1/GROa protein level in relation to LPS without any substance, Median” value ([2]; 32 mmol/l in culture medium) is given as 78%. The “CINC-1/GROa protein level in relation to LPS without any substance, Median” value ([2]; 64 mmol/l in culture medium) was 73%, the “Viability and cytotoxicity in HMVEC” value [4] was “does not cause significant cytotoxicity” and the “Octanol water partition coefficient” value [5, 11] was 0.17 ^(1). The activity at 16000 µM [1, 12] was 58% and the activity at 64000 µM [1, 13] was 59%.
For `OCC(F)(F)C(F)(F)F` [2,2,3,3,3-Pentafluoro-1-propanol], the Solubility ([3]; 25° C.) is listed as 21.9 g/L (25° C.), the “CINC-1/GROa protein level in relation to LPS without any substance, Median” value ([2]; 16 mmol/l in culture medium) is listed as 115% and the “CINC-1/GROa protein level in relation to LPS without any substance, Median” value ([2]; 32 mmol/l in culture medium) is listed as 41%. The “CINC-1/GROa protein level in relation to LPS without any substance, Median” value ([2]; 64 mmol/l in culture medium) was 31%, the activity at 16000 µM [1, 12] was 92% and the activity at 64000 µM [1, 13] was 70%.
In the case of `CC(C)O` [2-Propanol, reference compound], the “CINC-1/GROa protein level in relation to LPS without any substance, Median” value ([2]; 4 mmol/l in culture medium) is reported as 109%, the “CINC-1/GROa protein level in relation to LPS without any substance, Median” value ([2]; 16 mmol/l in culture medium) is reported as 97% and the “MCP-1 level in relation to LPS without any substance, Median” value [1, 8] is reported as 101%. For the same molecule, the “MCP-1 level in relation to LPS without any substance, Median” value [1, 9] was 86% and the “MCP-1 level in relation to LPS without any substance, Median” value [1, 10] was 82%.
With `NC(CC(=O)O)C(F)(F)F` (centres unmarked) [3-Amino-4,4,4-Trifluorobutyroic acid, 3-Amino-4,4,4-trifluorobutyric acid] the “CINC-1/GROa protein level in relation to LPS without any substance, Median” value ([2]; 8 mmol/l in culture medium) was 79%, the “CINC-1/GROa protein level in relation to LPS without any substance, Median” value ([2]; 16 mmol/l in culture medium) was 0% and the “CINC-1/GROa protein level in relation to LPS without any substance, Median” value ([2]; 64 mmol/l in culture medium) was 0%. The melting point was 180 to 190 °C, the “Viability and cytotoxicity in HMVEC” value [4] was “does not cause significant cytotoxicity” and the activity at 16000 µM [1, 12] was 101%. It also gave an activity at 32000 µM [1, 14] of 44% and an activity at 64000 µM [1, 13] of 0%.
In the case of `CC(C[C@H](N)C(=O)O)C(F)(F)F` (some centres unmarked) [5,5,5-Trifluorleucine], the “MCP-1 level in relation to LPS without any substance, Median” value [1, 8] is reported as 68%.
With `ClC(Cl)Cl` [Chloroform, reference compound] the activity at 64000 µM [1, 15] was 171%.
For `FC(F)OC(F)C(F)(F)F` (centres unmarked) [Desflurane], the “Inflammatory mediators and tissue damage markers in patients” value [6] is listed as “significantly reduces” and the “Octanol water partition coefficient” value ([5]; footnote 2: Urban et al. 1995) is listed as 28.5.
With `CCO` [Ethanol, reference compound] the “CINC-1/GROa protein level in relation to LPS without any substance, Median” value ([2]; 16 mmol/l in culture medium) was 107%, the “CINC-1/GROa protein level in relation to LPS without any substance, Median” value ([2]; 32 mmol/l in culture medium) was 91% and the “CINC-1/GROa protein level in relation to LPS without any substance, Median” value ([2]; 64 mmol/l in culture medium) was 88%. The activity at 16000 µM [1, 12] was 103% and the activity at 64000 µM [1, 13] was 92%.
For `FC(F)(F)C(Cl)Br` (centres unmarked) [Halothane], the “Octanol water partition coefficient” value ([5]; footnote 2: Urban et al. 1995) is listed as 315.
For `OC(C(F)(F)F)C(F)(F)F` [Hexafluoroisopropanol, 1,1,1,3,3,3-Hexafluoropropan-2-ol], the Solubility ([3]; 25° C.) is given as 1000 g/L (25° C.), the “CINC-1/GROa protein level in relation to LPS without any substance, Median” value ([2]; 4 mmol/l in culture medium) is given as 49% and the “CINC-1/GROa protein level in relation to LPS without any substance, Median” value ([2]; 16 mmol/l in culture medium) is given as 26%. For the same molecule, the “CINC-1 levels of endothelial cells stimulated with LPS (in words)” value ([2]; LPS stimulation) was “decrease was most pronounced”, the “Viability and cytotoxicity in HMVEC” value [4] was “does not cause significant cytotoxicity” and the “Octanol water partition coefficient” value [5, 11] was 0.37 ^(1). The Chemotaxis for neutrophils [7] was “significantly attenuated chemotaxis”, the activity at 4000 µM ([1]; Epithelial cell, rat AEC, LPS 20 μg/ml 6 hours, 4 mmol/l in culture medium, positive control=100%, read-out: MCP-1 level in relation to LPS without any substance, Median) was 98% and the activity at 8000 µM ([1]; Epithelial cell, rat AEC, LPS 20 μg/ml 6 hours, 8 mmol/l in culture medium, positive control=100%, read-out: MCP-1 level in relation to LPS without any substance, Median) was 101%. For the same molecule, the activity at 16000 µM [1, 12] was 63%, the activity at 32000 µM [1, 14] was 11% and the “MCP-1 levels of epithelial cells stimulated with LPS (in words)” value ([1]; LPS stimulation) was “decrease was most pronounced”.
In the case of `FC(F)OC(Cl)C(F)(F)F` (centres unmarked) [Isoflurane], the “Inflammatory mediators and tissue damage markers in patients” value [6] is given as “significantly reduces” and the “Octanol water partition coefficient” value ([5]; footnote 2: Urban et al. 1995) is given as 156.
Molecule `CC(C)C[C@H](N)C(=O)O` [Leucine, reference compound] has an activity at 16000 µM [1, 12] of 91%.
Molecule `COC(=O)CC(=O)C(F)(F)F` [Methyl-4,4,4-trifluoro-acetoacetate] has an activity at 16000 µM [1, 12] of 7% and an activity at 32000 µM [1, 14] of 0%.
For `CNC(=O)C(F)(F)F` [Methyltrifluoroacetamide, N-Methyl-2,2,2-trifluoroacetamide], the activity at 8000 µM [1, 15] was 80%, the activity at 16000 µM [1, 15] was 56% and the activity at 32000 µM [1, 15] was 41%. The activity at 64000 µM [1, 15] was 0%.
For Enflurane, the “Octanol water partition coefficient” value ([5]; footnote 2: Urban et al. 1995) is listed as 122.
For Sevoflurane, the “Inflammatory mediators and tissue damage markers in patients” value [6] is listed as “significantly reduces”, the “Octanol water partition coefficient” value ([5]; footnote 2: Urban et al. 1995) is listed as 71 and the “MCP-1 level in relation to LPS without any substance, Median” value [1, 10] is listed as 68%.
